# Laboratory results from paper PMC7290441 (Viruses, 2020).
# Structures can show the parent of a compound that is named as a salt.
# Target: PR8M2-S (A27V/N31S reverse mutant of PR8 M2) (Influenza A virus, UniProt P06821, A27V/N31S)
# Assay type: biochemical
# Details: pH 5.2
row,Structure (SMILES),effect on proton channel function of PR8M2-S
1,"NC12CC3CC(CC(C3)C1)C2 [AMT, amantadine hydrochloride]",inhibited
2,"CC(CCc1ccccc1)NC(C)C(O)c1ccc(O)cc1 (centres unmarked) [Nylidrin, nylidrin]",no effect
